Here are results for 16 compounds from US20210139507A1, “FUSED PYRIDINES WHICH ACT AS INHIBITORS OF H PGDS” (GlaxoSmithKline Intellectual Property Development Limited, priority 2017, published 2021).

The target in one test is T1, hematopoietic prostaglandin D synthase (H-PGDS) (Homo sapiens, UniProt O60760).
T1 construct: Full length human H-PGDS cDNA (Invitrogen Ultimate ORF IOH13026) was amplified by PCR; 6-His (N); TEV protease cleavage site (N); made in house; host or cells: E. coli BL21 (DE3*), vector pET22b+
T1 sequence (O60760 whole entry): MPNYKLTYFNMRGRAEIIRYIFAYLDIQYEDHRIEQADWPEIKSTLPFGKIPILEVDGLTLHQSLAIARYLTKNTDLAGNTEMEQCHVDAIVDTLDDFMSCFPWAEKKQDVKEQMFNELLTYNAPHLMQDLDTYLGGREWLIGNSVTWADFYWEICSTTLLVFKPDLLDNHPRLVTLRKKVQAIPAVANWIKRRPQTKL
Put plainly: H-PGDS RapidFire High Throughput Mass Spectrometry Assay. The note with it: conversion of PGH2 to PGD2 by human H-PGDS, 10 nM enzyme. The format is biochemical. As to the method:
The H-PGDS RapidFire™ mass spectrometric assay monitors conversion of prostaglandin H2 (PGH2) to prostaglandin D2 (PGD2) by hematopoietic prostaglandin D synthase (H-PGDS). In the assay format described here, the substrate (PGH2) is formed in situ by the action of cyclooxygenase-2 on arachidonic acid. This first step is set up to be fast, and generates a burst of PGH2 at ˜10 μM. The PGH2 is then further converted to PGD2 by the H-PGDS enzyme. […] Plates are then read on the RapidFire™ high throughput solid phase extraction system (Agilent) which incorporates a solid phase extraction step coupled to a triple quadrupole mass spectrometer (AB SCIEX). Relative levels of PGD2 and PGF2α, which acts as a surrogate for substrate, are measured and a percent conversion calculated. Inhibitors are characterized as compounds which lower the conversion of PGH2 to PGD2.
Full length human H-PGDS cDNA (Invitrogen Ultimate ORF IOH13026) was amplified by PCR with the addition of a 5′ 6-His tag and TEV protease cleavage site. The PCR product was digested with NdeI and XhoI and ligated into pET22b+ (Merck Novagen®). Expression was carried out in E. coli strain BL21 (DE3*) using auto-induction Overnight Express™ Instant TB medium (Merck Novagen®) supplemented with 1% glycerol. The culture was first grown at 37° C. and the temperature was reduced to 25° C. when OD600 reached 2.0. Cells were harvested by centrifugation after a further 18 hours. 10 g of E. coli cell pellet was suspended to a total volume of 80 mL in lysis buffer (20 mM Tris-Cl pH 7.5, 300 mM NaCl, 20 mM imidazole, 5 mM β-mercaptoethanol, 10% glycerol). 1 mg/mL protease inhibitors (Protease Inhibitor Cocktail Set III, Merck Calbiochem®) and 1 mg/mL lysozyme were added to the cell suspension. The suspension was then sonicated for 5 min (Ultrasonic Processor VCX 750, Cole-Parmer Instrument Co.) with a micro probe (50% amplitude, 10 sec on/off) and then centrifuged at 100,000 g for 90 minutes (at 4° C.). The supernatant was loaded onto a Ni-NTA HiTrap column (5 mL, GE Healthcare, pre-equilibrated in lysis buffer). The column was washed with 10 column volumes of lysis buffer and eluted with lysis buffer containing 500 mM imidazole. The pooled protein peak fractions were concentrated using a 10 kDa centrifugal filter at 3500 g and 4° C. (Amicon Ultra-15 centrifugal filter unit with Ultracel-10 membrane from Millipore). Further purification of the concentrated protein was carried out using gel filtration chromatography on a HiLoad 26/600 Superdex75 preparative grade column (GE Healthcare Life Sciences) using 50 mM Tris pH 7.5, 50 mM NaCl, 1 mM dithiothreitol, 1 mM MgCl2. Fractions containing the protein were pooled, concentrated as described above, and stored at −80° C.
The full length human COX-2 gene (accession number L15326) was amplified by PCR to generate an EcoRI-Hindi 11 fragment containing an in-frame FLAG tag. This was subcloned into pFastBac 1 (Invitrogen). The COX-2 FLAG plasmid was recombined into the baculovirus genome according to the BAC-to-BAC protocol described by Invitrogen. Transfection into Spodoptera frugiperda (Sf9) insect cells was performed using Cellfectin (Invitrogen), according to the manufacturer's protocol. Super Sf9 cells were cultured in EX420 media (SAFC Biosciences) to a density of approximately 1.5×10^6 cells/mL within a wave bioreactor. Recombinant virus was added at a Multiplicity of Infection (MOI) of 5 and the culture was allowed to continue for 3 days. Cells were harvested using a continuous feed centrifuge run at 2500 g at a rate of approximately 2 L/min with cooling. The resultant cell slurry was re-centrifuged in pots (2500 g, 20 min, 4° C.) and the cell paste was stored at −80° C. 342 g of cell paste was re-suspended to a final volume of 1600 mL in a buffer of 20 mM Tris-Cl pH 7.4, 150 mM NaCl, 0.1 mM EDTA, 1.3% w/v n-octyl-β-D-glucopyranoside containing 20 Complete EDTA-free Protease Inhibitor Cocktail tablets (Roche Applied Science). […]
Regarding “2-Cyclopropyl-N-((3R,6S)-6-(2-hydroxypropan-2-yl)tetrahydro-2H-pyran-3-yl)thiazolo[4,5-b]pyridine-6-carboxamide and 2-Cyclopropyl-N-((3S,6R)-6-(2-hydroxypropan-2-yl)tetrahydro-2H-pyran-3-yl)thiazolo[4,5-b]pyridine-6-carboxamide [Example 24]”, the “Potency Range (mean pIC50)” value is given as “** (** = pIC50 6.0-7.0)”.

The test is the same for the next values; noted with them: conversion of PGH2 to PGD2 by human H-PGDS, 10 nM enzyme; mean pIC50; read-out: Potency Range (mean pIC50) (converted).
For the compound `CC(C)(O)C12CC(NC(=O)c3cnc4nc(C5CC5)sc4c3)(C1)C2` [Example 13, 2-Cyclopropyl-N-(3-(2-hydroxypropan-2-yl)bicyclo[1.1.1]pentan-1-yl)thiazolo[4,5-b]pyridine-6-carboxamide], the IC50 is 100 to 1000 nM.

As for `CN(c1nc2ncc(C(=O)N[C@H]3CC[C@H](C(C)(C)O)CC3)cc2s1)C1CC1` [Example 35, 2-(Cyclopropyl(methyl)amino)-N-(trans-4-(2-hydroxypropan-2-yl)cyclohexyl)thiazolo[4,5-b]pyridine-6-carboxamide], the IC50 is 100 to 1000 nM.

Turning to `CC(C)(O)C12CC(NC(=O)c3cnc4cc(Br)sc4c3)(C1)C2` [Example 11, 2-Bromo-N-(3-(2-hydroxypropan-2-yl)bicyclo[1.1.1]pentan-1-yl)thieno[3,2-b]pyridine-6-carboxamide], the IC50 is 100 to 1000 nM.

Consider `CC(N[C@H]1CC[C@H](NC(=O)c2cnc3nc(C4CC4)sc3c2)CC1)C(F)F` (relative stereo) [Example 23, 2-Cyclopropyl-N-(trans-4-((1,1-difluoropropan-2-yl)amino)cyclohexyl)thiazolo[4,5-b]pyridine-6-carboxamide], for which the IC50 was 100 to 1000 nM.

For the compound `CC(C)(F)c1nc2ncc(C(=O)N[C@H]3CC[C@H](C(C)(C)O)CC3)cc2s1` [Example 25, 2-(2-Fluoropropan-2-yl)-N-(trans-4-(2-hydroxypropan-2-yl)cyclohexyl)thiazolo[4,5-b]pyridine-6-carboxamide], the IC50 was 100 to 1000 nM.

In the case of `O=C(N[C@H]1CC[C@H](C(O)C2CC2)CC1)c1cnc2nc(C3CC3)sc2c1` (relative stereo) [Example 26, 2-Cyclopropyl-N-(trans-4-(cyclopropyl(hydroxy)methyl)cyclohexyl)thiazolo[4,5-b]pyridine-6-carboxamide], the IC50 is 10 to 79.4 nM.

Regarding `C[C@]1(O)C[C@@H](NC(=O)c2cnc3cc(Br)sc3c2)C1` [Example 3], the IC50 was 1260 to 10000 nM.

On to `CC(C)N(C)c1nc2ncc(C(=O)N[C@H]3CC[C@H](C(C)(C)O)CC3)cc2s1` [Example 6], for which the IC50 is 10 to 79.4 nM.

Consider `CC(C)(O)[C@H]1CC[C@H](NC(=O)c2cnc3cc(C4CC4)sc3c2)CC1` [Example 2], for which the IC50 is 10 to 79.4 nM.

With `CN(c1nc2ncc(C(=O)N[C@H]3CC[C@H](C(C)(C)O)CC3)cc2s1)C(C)(C)C` [Example 38, 2-(tert-Butyl(methyl)amino)-N-(trans-4-(2-hydroxypropan-2-yl)cyclohexyl)thiazolo[4,5-b]pyridine-6-carboxamide], the IC50 is 100 to 1000 nM.

In the case of `C[C@]1(O)CC[C@H](NC(=O)c2cnc3nc(C4CC4)sc3c2)CC1` [Example 17, 2-Cyclopropyl-N-((trans)-4-hydroxy-4-methylcyclohexyl)thiazolo[4,5-b]pyridine-6-carboxamide], the IC50 is 1260 to 10000 nM.

As to `CC(C)(O)[C@H]1CC[C@H](NC(=O)c2cnc3nc(N4CCC4)sc3c2)CC1` [Example 29, 2-(Azetidin-1-yl)-N-(trans-4-(2-hydroxypropan-2-yl)cyclohexyl)thiazolo[4,5-b]pyridine-6-carboxamide], the IC50 was 100 to 1000 nM.

As to `CC(C)(O)[C@H]1CC2(C[C@H](NC(=O)c3cnc4nc(C5CC5)sc4c3)C2)C1` (single isomer, unassigned) [Example 42], the IC50 is 10 to 79.4 nM.

For the compound `CC(C)(C)c1nc2ncc(C(=O)N[C@H]3CC[C@H](C(C)(C)O)CC3)cc2s1` [Example 27, 2-(tert-Butyl)-N-(trans-4-(2-hydroxypropan-2-yl)cyclohexyl)thiazolo[4,5-b]pyridine-6-carboxamide], the IC50 is 100 to 1000 nM.

Take `CC(C)(O)[C@H]1CC[C@H](NC(=O)c2cnc3nc(C4CC4)sc3c2)CC1` [Example 8]: the IC50 is 10 to 79.4 nM.

Another test concerns male mdx mice. The test is described as follows: In vivo assay for functional response to muscle injury (eccentric contraction-induced muscle fatigue). More on the design: species or system mouse. The note with it: 7 months of age, PO 0.1, 1 and 10 mg/kg QD beginning 10 min prior to challenge, versus vehicle, FIG. 1. The source says:
Under anesthesia, the right hind limb of a mouse is restrained at the knee and the foot attached to a motorized footplate/force transducer. Needle electrodes are inserted into the upper limb, either side of the sciatic nerve and a current sufficient to elicit a maximal muscle contraction is applied. Muscle tension is produced by moving the footplate to lengthen the plantarflexor muscles while the limb is under maximal stimulation. This is repeated 60 times to fatigue the muscles of the lower limb. Anesthesia, limb immobilization and limb stimulation are then repeated at regular intervals to measure maximal isometric force in the recovering limb. 7 to 9 animals are tested for each test condition.
As to `CC(C)(O)[C@H]1CC[C@H](NC(=O)c2cnc3nc(C4CC4)sc3c2)CC1` [Example 8], the “kinetics of recovery of maximal isometric torque after eccentric contraction challenge” value is on record as “exhibited an acceleration in the kinetics of recovery”.
